# Biological target: T1, small-conductance Ca2+-activated K+ channels (SK channels, subtype 2) (Homo sapiens, UniProt Q9H2S1)
# T1 construct: expressed in transfected cells; host or cells: HEK293
# Assay: whole-cell patch-clamp of ionic current through SK2 channels in HEK293 cells (SC100)
# Type: cell-based
# Conditions: concentration that increases the basal current by 100%; HEK293 cells expressing SK2 channels
# Outline: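 SC100, the concentration doubling basal current (a 100% increase), was taken from SK2 currents recorded by whole-cell patch-clamp in SK2-expressing HEK293 cells.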
row,SMILES,SC100
1,"Cc1cc(NC2CCC(F)(F)CC2)nc(-c2nc(CO)cs2)n1 [Compound 270, (2-(4-((4,4-difluorocyclohexyl)amino)-6-methylpyrimidin-2-yl)thiazol-4-yl)methanol]",+ (+ means >1 uM)
2,"COc1cccc(-c2nc(C)cc(NC3CCC(F)(F)CC3)n2)n1 [Compound 219, N-(4,4-difluorocyclohexyl)-2-(6-methoxypyridin-2-yl)-6-methylpyrimidin-4-amine]",+ (+ means >1 uM)
3,"Cc1cc(C)n(-c2nc(N[C@H]3CCCC(F)(F)C3)cc([C@H](C)O)n2)n1 [Compound 355, (−)-1-(6-(((S)-3,3-difluorocyclohexyl)amino)-2-(3,5-dimethyl-1H-pyrazol-1-yl)pyrimidin-4-yl)ethan-1-ol]",+ (+ means >1 uM)
4,"Cc1ccn(-c2nc(NC3CCC(F)(F)CC3)cc(N3CC(N(C)C)C3)n2)n1 [Compound 143, N-(4,4-difluorocyclohexyl)-6-(3-(dimethylamino)azetidin-1-yl)-2-(3-methyl-1H-pyrazol-1-yl)pyrimidin-4-amine]",++ (++ means 200 nM-1000 nM)
5,"Cc1cc(C)n(-c2nc(NC3CCC(F)(F)C3)cc(C(C)O)n2)n1 (stereo not drawn) [Compound 225, 1-(6-((3,3-difluorocyclopentyl)amino)-2-(3,5-dimethyl-1H-pyrazol-1-yl)pyrimidin-4-yl)ethan-1-ol]",+ (+ means >1 uM)
6,"Cc1cc(C)n(-c2nc(NC3CCC(F)(F)CC3)cc(C(C)(C)O)n2)n1 [Compound 152, 2-(6-((4,4-difluorocyclohexyl)amino)-2-(3,5-dimethyl-1H-pyrazol-1-yl)pyrimidin-4-yl)propan-2-ol]",+ (+ means >1 uM)
7,"Cc1cc(NC2CCC(F)(F)CC2)nc(-n2cc(F)cn2)n1 [Compound 196, N-(4,4-difluorocyclohexyl)-2-(4-fluoro-1H-pyrazol-1-yl)-6-methylpyrimidin-4-amine]",+ (+ means >1 uM)
8,"Cc1cc(C)n(-c2nc(NCc3cn(C)nn3)cc(NC3CCC(F)(F)CC3)n2)n1 [Compound 233, N4-(4,4-difluorocyclohexyl)-2-(3,5-dimethyl-1H-pyrazol-1-yl)-N6-((1-methyl-1H-1,2,3-triazol-4-yl)methyl)pyrimidine-4,6-diamine]",++ (++ means 200 nM-1000 nM)
9,CC(O)c1csc(-c2nc(NC3CCC(F)(F)CC3)cc(OC3CN(C(=O)C(C)(C)C)C3)n2)n1 (stereo not drawn) [Compound 337],+ (+ means >1 uM)

# Same assay, conditions: whole-cell patch-clamp, HEK293 cells expressing SK2 channels; concentration that increases the basal current by 100%
row,SMILES,SC100 (μM)
1,COc1cc(N[C@@H]2CCCC[C@H]2F)nc(-c2nc(C)cs2)n1 [IN11140-096-P1],+ (+ means >1 uM)
2,Cc1ccn(-c2nc(NC34CC5CC(CC(O)(C5)C3)C4)cc(N3CCOCC3)n2)n1 [NSSy6511],+ (+ means >1 uM)
3,"Cc1csc(-c2cc(N3CCOCC3)cc(NC3CC=CCC3)n2)n1 (stereo not drawn) [NSSy5655, N-(cyclohex-3-en-1-yl)-6-(4-methylthiazol-2-yl)-4-morpholinopyridin-2-amine]",++ (++ means 200 nM-1000 nM)
4,"Cc1ccn(-c2nc(NC3CCC(F)(F)CC3)nc(N3CCOCC3)n2)n1 [IN10984-079-P1, N-(4,4-difluorocyclohexyl)-4-(3-methyl-1H-pyrazol-1-yl)-6-morpholino-1,3,5-triazin-2-amine]",+ (+ means >1 uM)
5,Cc1csc(-c2nc(C(C)O)cc(N(C)C3CCCCC3)n2)n1 (stereo not drawn) [IN10880-084-P1],+ (+ means >1 uM)
6,CC(F)(F)c1ccn(-c2nc(NC3CCC(F)(F)CC3)cc(N3CCOCC3)n2)n1 [IN11243-050-P2],++ (++ means 200 nM-1000 nM)
7,COc1cc(NC2CCC(F)(F)CC2)nc(-n2ccc(C)n2)n1 [IN11053-005-P1],+ (+ means >1 uM)
8,Cc1csc(-c2nc(NC3CCC(F)(F)CC3)cc(N3CCOC(CO)C3)n2)n1 (stereo not drawn) [IN10881-025-P1],++ (++ means 200 nM-1000 nM)
9,Cc1ccn(-c2nc(NC3CCC(F)CC3)cc(N3CC4(COC4)C3)n2)n1 (stereo not drawn) [NSSy5691],+ (+ means >1 uM)
10,Cc1csc(-c2nc(NC3CCC(F)(F)CC3)cc(N3CCCC3)n2)n1 [IN10882-014-P1],+ (+ means >1 uM)
11,COCCN(C)Cc1cc(NC2CCC(F)(F)CC2)nc(-n2ccc(C)n2)c1 [IN11039-017-P1],++ (++ means 200 nM-1000 nM)
12,"Cc1cc(C)n(-c2nc(NC3CCC(F)(F)CC3)cc(C(C)OC(C)C)n2)n1 (stereo not drawn) [IN10963-068-P1, N-(4,4-difluorocyclohexyl)-2-(3,5-dimethyl-1H-pyrazol-1-yl)-6-(1-isopropoxyethyl)pyrimidin-4-amine]",+ (+ means >1 uM)
13,Cc1nc(-c2nc(NC3CCCCC3)cc(N3CCS(=O)(=O)CC3)n2)cs1 [NSSy6134],+ (+ means >1 uM)
14,COC[C@H]1CN(c2cc(NC3CCCCC3)nc(-c3nc(C)cs3)n2)CCO1 [NSSy6115],++ (++ means 200 nM-1000 nM)
15,"Cc1cc(NC2CCC(F)(F)CC2)nc(-c2cccc(C)n2)c1 [IN11137-041-P1, N-(4,4-difluorocyclohexyl)-4,6′-dimethyl-[2,2′-bipyridin]-6-amine]",+ (+ means >1 uM)
16,"Cc1ccn(-c2cc(C(O)Cc3ccc(C#N)cn3)cc(NC3CCC(F)(F)CC3)n2)n1 (stereo not drawn) [NSSy6469, 6-(2-(2-((4,4-difluorocyclohexyl)amino)-6-(3-methyl-1H-pyrazol-1-yl)pyridin-4-yl)-2-hydroxyethyl)nicotinonitrile]",+++ (+++ means <200 nM)
17,COCC1COCCN1c1cc(NC2CCC(F)(F)CC2)nc(-c2nc(C)cs2)n1 (stereo not drawn) [IN10881-099-P1],+ (+ means >1 uM)
18,COc1cc(NC2CCC2)nc(-c2nc(C)cs2)n1 [IN11111-003-P1],+ (+ means >1 uM)
19,"Cc1cnc(-c2nc(NC3CCC(F)(F)CC3)cc(N3CCOCC3)n2)s1 [NSSy6067, N-(4,4-difluorocyclohexyl)-2-(5-methylthiazol-2-yl)-6-morpholinopyrimidin-4-amine]",+ (+ means >1 uM)
20,Cc1ccn(-c2nc(NC3CCC(F)(F)CC3)cc(N(C)C3CCOC3)n2)n1 (stereo not drawn) [IN10984-043-P1],+ (+ means >1 uM)
21,"CC1(O)CC(Oc2cc(-n3ccc(F)n3)nc(NC3CCC(F)(F)CC3)n2)C1 (stereo not drawn) [NSSy6464, 3-((2-((4,4-difluorocyclohexyl)amino)-6-(3-fluoro-1H-pyrazol-1-yl)pyrimidin-4-yl)oxy)-1-methylcyclobutan-1-ol]",+ (+ means >1 uM)
22,COc1cc(C#N)cnc1OCc1cc(NC2CCC(F)(F)CC2)nc(-n2ccc(C)n2)c1 [IN11125-008-P1],+++ (+++ means <200 nM)
23,"Cc1ccn(-c2nc(NC3CCC(F)(F)CC3)cc(OC3CNC3)n2)n1 [NSSy5648, 6-(azetidin-3-yloxy)-N-(4,4-difluorocyclohexyl)-2-(3-methyl-1H-pyrazol-1-yl)pyrimidin-4-amine]",+ (+ means >1 uM)
24,CCOc1cc(-n2ccc(C)n2)nc(NC2CCC(F)(F)CC2)n1 [NSSy6625],+ (+ means >1 uM)
25,Cc1ccn(-c2cc(OCc3cnnn3C)cc(NC3CCC(F)(F)CC3)n2)n1 [NSSy5643],++ (++ means 200 nM-1000 nM)
26,Cc1ccn(-c2cc(C(O)c3cnco3)cc(NC3CCC(F)(F)CC3)n2)n1 (stereo not drawn) [NSSy6846],+ (+ means >1 uM)
27,Cc1nsc(-c2nc(NC3CCC(F)(F)CC3)cc(N3CC4(COC4)C3)n2)n1 [NSSy6145],+ (+ means >1 uM)
